A melting point compilation (Tetko et al.; mined from patent text by program, amines drawn as free bases though some values may be those of a salt)
Residues, ends and D or L forms follow the SMILES beside them. *: point of attachment. Boc = CC(C)(C)OC(=O)*; Bn = c1ccc(C*)cc1

Row | SMILES | melting point
1 | Cc1c(-c2ccnc(Nc3ccc(C(=O)N4CCOCC4)cc3)n2)cccc1[N+](=O)[O-] | 187 to 188 °C
2 | CN1C(=O)[C@H](NC(=O)C2CCC3(CC2)CCN(C(=O)OC(C)(C)C)CC3)N=C(c2ccccc2)c2ccccc21 | 135 to 138 °C
3 | COc1cc(C(=O)c2c(C)nn(C)c2O)cc(OC)c1OC | 189 to 191 °C
4 | Cc1ccc(S(=O)(=O)OCC2Cc3cccc(-c4cc(Cl)cc(Cl)c4)c3O2)cc1 (centres undefined) | 113 to 115 °C
5 | O=c1[nH]c2ccccc2c2ccc3nc(Nc4c(Cl)cccc4Cl)[nH]c3c12 | > 300 °C
6 | CCn1cnc2c(cnc3c2cnn3CC)c1=O | 167 to 169 °C
7 | O=c1[nH]c2ccc(C3CCN(Cc4ccc(-c5ccccc5)cc4)CC3)cc2[nH]1 | > 260 °C
8 | O=C(O)CCc1ccc2c(c1)Cc1ccccc1CO2 | 181 to 183 °C
9 | Cc1c(-c2ccc(F)cc2)c(-c2ccc(S(C)(=O)=O)cc2)c2n1CCC2 | 191 °C
10 | COC(=O)c1c(Cc2ccc(S(C)(=O)=O)nc2)c(=O)c2ccc(C)nc2n1-c1ccccc1 | 217 to 218 °C
11 | CCCCCCCCOc1ccc(-c2cnc(-c3ccc(O)cc3)nc2)cc1 | 137 °C
12 | N#CN1C2CCC1CC(c1n[nH]c3cc(F)ccc13)C2 (centres undefined) | 182 to 184 °C
13 | CCC12CCC3=C(CCc4cc(OC)ccc43)C1CCC2O (centres undefined) | 102 to 105 °C
14 | CCOc1cnc(N[N+](=O)[O-])[nH]c1=O | 189 to 192 °C
15 | COc1ccc2c(c1OC)CN(c1nc(N)c3cc(OC)c(OC)c(OC)c3n1)CC2 | 190 °C
16 | COC(=O)C(Cc1ccc(OCc2ccccc2)cc1)NC(=O)C(COCc1ccccc1)NC(=O)C(Cc1c[nH]c2ccccc12)NC(=O)OC(C)(C)C (stereo not drawn) (Boc-Trp-Ser(Bn)-Tyr(Bn)-OMe; configuration not given here) | 130 to 131 °C
17 | CC1CCN(c2ncc(Br)cc2C=O)C1 (centres undefined) | 72 to 73 °C
18 | CCc1cccc(C(C)C)c1NC(=O)NCC1(c2ccccc2)CCCCC1 | 178 to 180 °C
19 | CSCc1cn(C)c2cc(C(F)(F)F)ccc2c1=O | 182 to 184 °C
20 | CCCCCCCCCCCCc1cc(O)ccc1S | 75 to 76 °C
21 | C=CCOc1cccc(C(=O)O)c1C(=O)O | 166 to 167 °C
22 | COc1ccc2c(c1)CCC(N(CC(=O)O)C(=O)C(C)CSC(C)=O)C2 (centres undefined) | 118 to 122 °C
23 | CCCCCCCc1ccccc1C=CC(=O)c1ccc(OCC=C(C)C)cc1O | 65 to 67 °C

Row | SMILES | melting point
24 | CC(C)(Cc1cc2c(OCc3ccc4ccccc4n3)cccc2n1Cc1ccc(Cl)cc1)C(=O)O | 158 to 160 °C
25 | O=C1c2ccccc2C(=O)N1CCCCCCN1CCC(c2nc(-c3ccncc3)c(-c3ccc(Cl)c(Cl)c3)[nH]2)CC1 | 129 to 134 °C
26 | CC(Cc1ccccc1)C1CC=C2C3=C(CCC21C)C1(C)CCC(O)CC1CC3 (centres undefined) | 156 to 157 °C
27 | CCCc1ccc(NC(=O)c2ccccc2C(c2ccc(O)cc2)c2ccc(O)cc2)cc1 | 218 to 219 °C
28 | CC1Cc2ccc(Cl)cc2C(c2ccc([N+](=O)[O-])cc2)O1 (centres undefined) | 120 to 123 °C
29 | COc1cc(OC)c2c(c1)c(-c1cc3cccnc3[nH]1)cn2C | 220 °C
30 | CNC(=O)NC1CCC(OC)c2sccc21 (centres undefined) | 152 to 159 °C
31 | N#Cc1ccc(-c2cccc(-c3nc4ccc(C#N)cc4[nH]3)n2)cc1 | 311 to 312 °C
32 | CCOC(=O)N1CCC(Nc2nc3cccnc3n2Cc2ccc(CO)o2)CC1 | 148 °C
33 | COc1ccc(-c2c(NC(=O)Nc3ccc(F)cc3F)cnc3ccc(Cl)cc23)c(OC)c1OC | 120 to 122 °C
34 | O=C(CC(=O)OCc1ccccc1)OCc1ccccc1 | 104 to 106 °C
35 | CSc1ccc(N(C(C)C)S(=O)(=O)c2ccc(C)cc2)c([N+](=O)[O-])c1 | 124 to 126 °C
36 | O=C(NCCCCCCOCc1ccc(OCc2ccccc2)cc1)c1cc(-c2cccc(C(F)(F)F)c2)c(O)c(-c2cccc(C(F)(F)F)c2)c1 | 127 to 130 °C
37 | Cc1c(C)c2c(c(C)c1NC(=O)CC(C)(C)C)OC(C)(C)C2c1ccc(C(C)C)cc1 (centres undefined) | 128 to 129 °C
38 | CCC(=NO)C(C)(C)NCCCN | 72 to 74 °C
39 | COc1ccccc1N1CCN([C@H]2Cc3c(OC)ccc(OC)c3C[C@H]2O)CC1 (relative stereo) | 213 to 216 °C
40 | CC(C)c1c(CCl)c(-c2ccc(F)cc2)nn1-c1ccccc1 | 124 to 128 °C
41 | Cc1ccc2c(n1)sc1c(=O)n(C)nnc12 | 169 to 171 °C
42 | Nc1ccc(Sc2c(NCc3ccccc3)cc(C(=O)O)cc2S(N)(=O)=O)cc1 | 254 to 256 °C
43 | COC(=O)c1ccc(CBr)cc1O | 73 to 75 °C
44 | CCCCCCCCCCc1nnn[nH]1 | 57 to 59 °C
45 | O=c1c2cccc3c2n(c(=O)n1CCO)-c1cc(C(F)(F)F)ccc1S3=O (centres undefined) | 205 to 206 °C
46 | Cn1ncnc1COc1nn2c(-c3ccccc3F)nncc2c1-c1cccc(F)c1F | 176 °C

Row | SMILES | melting point
47 | N#Cc1cc(N)ccc1N1CCC(N2CCOCC2)CC1 | 84 to 86 °C
48 | O=C1CCC(=O)N1Cn1nnc(-c2ccnc(-c3nnn(CN4C(=O)CCC4=O)n3)c2)n1 | 190 to 192 °C
49 | C=CCC(=CC(N)C(=O)O)CP(=O)(O)O (centres undefined) | 154 to 157 °C
50 | COc1cc(O)ccc1OCc1ccccc1 | 84 °C
51 | CC(=O)OCC(=O)CS(=O)(=O)C(c1ccc(Cl)cc1)c1ccc(Cl)cc1 | 57 to 60 °C
52 | CCCCNc1cc(-c2nc(N)n[nH]2)ccn1 | 268 to 270 °C
53 | CCn1c(C)nc2cc(S(C)(=O)=O)ccc21 | 140 to 142 °C
54 | CCCCCCCCCCCCCC(=O)O[C@H](CCCCCCCCCCC)CC(=O)NC(=O)[C@@H](N)CO | 126 to 130 °C
55 | Cc1nc(CCCCCn2cnc3c2c(=O)n(C)c(=O)n3C)no1 | 160 to 162 °C
56 | O=C1Nc2ccc(Br)cc2C2(c3ccccn3)OCCN12 (centres undefined) | 241 to 242 °C
57 | CCCCCc1ccc(-c2ccc(C(C)=O)cc2)cc1 | 81 to 82 °C
58 | COc1cc(OC)c2c(c1)Oc1cc(Br)ccc1CC2=O | 95 to 103 °C
59 | CC(=O)OC1CSC(Oc2cncc(-c3ccc(F)c(C)c3)c2)C(OC(C)=O)C1OC(C)=O (centres undefined) | 161 °C
60 | C[C@@H]1CN(CCCn2c3ccc(O)cc3c3c4c(c(-c5ccccc5Cl)cc32)C(=O)NC4=O)C[C@H](C)N1 | 165 to 172 °C
61 | O=C(CCc1c[nH]c2ccccc12)NCc1ccccc1 | 73 to 75 °C
62 | CC(C)(C)CC(C)(C)c1cc(-n2nc3ccc([N+](=O)[O-])cc3n2)c(O)c(C(C)(C)c2ccccc2)c1 | 153 to 156 °C
63 | O=C(CC1CCN(CC2CC2)CC1)c1ccc(O)cc1 | 209 to 211 °C
64 | CC(=O)Nc1ccc(Cl)c2c1CN(C)C2 | 147 to 150 °C
65 | COCCNC(=O)c1cccc2c1C1(COc3cc4c(cc31)OCCO4)C(=O)N2C (centres undefined) | 97 to 100 °C
66 | COCCNC(=O)c1ccc(C)c(-n2c(C)cc(OCc3ccccc3CNC(=O)Nc3cc(C(C)(C)C)nn3-c3ccc(O)c(Cl)c3)c(Cl)c2=O)c1 | 179 to 180 °C
67 | CCNc1nc(Nc2ccccc2)ncc1CCC(=O)OCC | 106 to 107 °C
68 | CCOC(=O)Cc1ccc(-c2nc(COc3ccc(CO)cc3OC)c(C)o2)cc1 | 97 to 98 °C
69 | CCC(O)(c1ccc(O)cc1)c1ccc(C(F)(F)F)cc1 (centres undefined) | 126 to 127 °C
